The record followed here is PubChem BioAssay (NCI).

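Compound exposure: 48 hours, 5 concentrations, 96-well plates. Here, GI50 denotes the concentration required for 50% inhibition of growth. TGI marks complete inhibition of growth.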

Holding throughout (experiment): NCI anticancer screen, dose series, 48 h
Assay [1] concerns MCF7 breast.
Assay [2] deals with UO-31 renal.
Assay [3] deals with DU-145 prostate.
The test system of assay [4] is HS 578T breast.
Assay [5] has as its system HOP-62 NSCLC.
Assay [6] has as its system CCRF-CEM leukemia.
For assay [7], the system named is RPMI-8226 leukemia.
The subject of assay [8] is HL-60(TB) leukemia.
Assay [9] deals with HCT-15 colon.
The subject of assay [10] is A498 renal.

For the compound `CNCCN(C)Cc1cn[nH]c1-c1ccc(OC2CC(OCCC3CCOCC3)C2)cc1` (stereo not given), the GI50 was > 81.2 µM in [1]; 28 µM in assay [2]; > 100 µM in assay [3]; 63.1 µM in [4]; 99.1 µM in [5]; > 100 µM in assay [6]. For the same compound, the GI50 in assay [7] was 44.4 µM; in assay [8] it was > 80.1 µM; in [9], > 100 µM; in assay [10] it was > 57.1 µM. The TGI in assay [1], in assay [2], in assay [3], in assay [4], in assay [5] and in assay [6] was > 100 µM throughout. In addition, the TGI in assay [7], in assay [8], in assay [9] and in assay [10] was > 100 µM throughout.

`CCOC(=O)c1cc(-c2ccccc2)[nH]c1N/N=C/c1c(Cl)cccc1Cl`: the GI50 is 0.45 µM in [1]; 1.34 µM in [2]; 1.59 µM in [3]; 0.538 µM in assay [4]; 2.37 µM in assay [5]; 2.3 µM in assay [6]. Moreover, the GI50 in assay [7] is 2.11 µM; in [8] it was 0.484 µM; in assay [9], 0.671 µM; in [10], 1.08 µM. The TGI is > 100 µM in assay [1]; > 100 µM in [2]; 11.7 µM in [3]; 37.2 µM in assay [4]; 41.4 µM in [5]; 13.5 µM in assay [6]. Also, the TGI in assay [7] was 11.3 µM; in assay [8] it was 5.13 µM; in assay [9] it was > 100 µM; in assay [10], 43.7 µM.
